In the supplement of paper PMC10307832:

Columns and labels:
Assay in all cases: relative viability (nuclei count vs DMSO), 5 days (fraction); higher = more cells survive
[1] = tested on: NCI-H1755
How it was run: (§1)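 Lung cancer cell lines, seeded in 1536-well plates, were treated the following day by pin tool with a single drug or with five library-drug doses (not always all listed) in √10 steps on top of a fixed anchor-drug dose. Cells were fixed and nuclei stained in one step after 5 days, and nuclei were counted. Relative viability is the nuclei count for treated wells divided by that for vehicle wells, reported as medians of duplicate plates.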

[2] = tested on: H3255
How it was run: as §1

[3] = tested on: NCI-H441
How it was run: as §1

[4] = tested on: NCI-H23
How it was run: as §1

[5] = tested on: SW 900
How it was run: as §1

[6] = tested on: NCI-H1792
How it was run: as §1

[7] = tested on: NCI-H520
How it was run: as §1

[8] = tested on: NCI-H1563
How it was run: as §1

[9] = tested on: COR-L 105
How it was run: as §1

[10] = tested on: PC-3 [JPC-3]
How it was run: as §1

[11] = tested on: LOU-NH91
How it was run: as §1

[12] = tested on: NCI-H596
How it was run: as §1

[13] = tested on: NCI-H2170
How it was run: as §1

[14] = tested on: HCC-366
How it was run: as §1

[15] = tested on: NCI-H1734
How it was run: as §1

[16] = tested on: EMC-BAC-2
How it was run: as §1

[17] = tested on: SK-MES-1
How it was run: as §1

[18] = tested on: ChaGo-K-1
How it was run: as §1

[19] = tested on: NCI-H1975
How it was run: as §1

[20] = tested on: NCI-H1666
How it was run: as §1

[21] = tested on: A-427
How it was run: as §1

[22] = tested on: LK-2
How it was run: as §1

[23] = tested on: EKVX
How it was run: as §1

[24] = tested on: NCI-H1944
How it was run: as §1

Question: What does the source list for Clc1ccc(Nc2nnc(Cc3ccncc3)c3ccccc23)cc1 [Vatalanib] + Cc1nc(Nc2ncc(C(=O)Nc3c(C)cccc3Cl)s2)cc(N2CCN(CCO)CC2)n1 [Dasatinib] (partner 0.075 µM)?
Answer: relative viability ([1]; first compound 0.04 µM): 0.496; relative viability ([1]; first compound 0.1265 µM): 0.418; relative viability ([1]; first compound 0.4 µM): 0.514; relative viability ([1]; first compound 1.265 µM): 0.413; relative viability ([1]; first compound 4 µM): 0.381; relative viability ([2]; first compound 0.04 µM): 0.316; relative viability ([2]; first compound 0.1265 µM): 0.385; relative viability ([2]; first compound 0.4 µM): 0.311; relative viability ([2]; first compound 1.265 µM): 0.28; relative viability ([2]; first compound 4 µM): 0.335; relative viability ([3]; first compound 0.04 µM): 0.634; relative viability ([3]; first compound 0.1265 µM): 0.627; relative viability ([3]; first compound 0.4 µM): 0.573; relative viability ([3]; first compound 1.265 µM): 0.605; relative viability ([3]; first compound 4 µM): 0.551; relative viability ([4]; first compound 0.04 µM): 0.792; relative viability ([4]; first compound 0.1265 µM): 0.73; relative viability ([4]; first compound 0.4 µM): 0.929; relative viability ([4]; first compound 1.265 µM): 0.772; relative viability ([4]; first compound 4 µM): 0.667; relative viability ([5]; first compound 0.1265 µM): 0.535; relative viability ([5]; first compound 0.4 µM): 0.599; relative viability ([5]; first compound 1.265 µM): 0.474; relative viability ([5]; first compound 4 µM): 0.417; relative viability ([6]; first compound 0.04 µM): 0.724; relative viability ([6]; first compound 0.1265 µM): 0.814; relative viability ([6]; first compound 0.4 µM): 0.758; relative viability ([6]; first compound 1.265 µM): 0.811; relative viability ([6]; first compound 4 µM): 0.759; relative viability ([7]; first compound 0.04 µM): 0.205; relative viability ([7]; first compound 0.1265 µM): 0.202; relative viability ([7]; first compound 0.4 µM): 0.218; relative viability ([7]; first compound 1.265 µM): 0.161; relative viability ([7]; first compound 4 µM): 0.126; relative viability ([8]; first compound 0.04 µM): 0.45; relative viability ([8]; first compound 0.1265 µM): 0.479; relative viability ([8]; first compound 0.4 µM): 0.428; relative viability ([8]; first compound 1.265 µM): 0.456; relative viability ([8]; first compound 4 µM): 0.346; relative viability ([9]; first compound 0.04 µM): 0.294; relative viability ([9]; first compound 0.1265 µM): 0.32; relative viability ([9]; first compound 0.4 µM): 0.404; relative viability ([9]; first compound 1.265 µM): 0.316; relative viability ([9]; first compound 4 µM): 0.326; relative viability ([10]; first compound 0.04 µM): 0.949; relative viability ([10]; first compound 0.1265 µM): 0.982; relative viability ([10]; first compound 0.4 µM): 0.951; relative viability ([10]; first compound 1.265 µM): 0.913; relative viability ([10]; first compound 4 µM): 0.891; relative viability ([11]; first compound 0.04 µM): 0.563; relative viability ([11]; first compound 0.1265 µM): 0.534; relative viability ([11]; first compound 1.265 µM): 0.514; relative viability ([11]; first compound 4 µM): 0.509; relative viability ([12]; first compound 0.04 µM): 0.643; relative viability ([12]; first compound 0.1265 µM): 0.652; relative viability ([12]; first compound 0.4 µM): 0.637; relative viability ([12]; first compound 1.265 µM): 0.518; relative viability ([12]; first compound 4 µM): 0.592; relative viability ([13]; first compound 0.04 µM): 0.521; relative viability ([13]; first compound 0.1265 µM): 0.486; relative viability ([13]; first compound 0.4 µM): 0.556; relative viability ([13]; first compound 1.265 µM): 0.483; relative viability ([13]; first compound 4 µM): 0.507; relative viability ([14]; first compound 0.04 µM): 0.829; relative viability ([14]; first compound 0.1265 µM): 0.573; relative viability ([14]; first compound 0.4 µM): 0.618; relative viability ([14]; first compound 1.265 µM): 0.586; relative viability ([14]; first compound 4 µM): 0.503; relative viability ([15]; first compound 0.04 µM): 0.512; relative viability ([15]; first compound 0.1265 µM): 0.432; relative viability ([15]; first compound 0.4 µM): 0.501; relative viability ([15]; first compound 1.265 µM): 0.47; relative viability ([15]; first compound 4 µM): 0.422; relative viability ([16]; first compound 0.04 µM): 0.329; relative viability ([16]; first compound 0.1265 µM): 0.31; relative viability ([16]; first compound 0.4 µM): 0.355; relative viability ([16]; first compound 1.265 µM): 0.306; relative viability ([16]; first compound 4 µM): 0.331; relative viability ([17]; first compound 0.04 µM): 0.346; relative viability ([17]; first compound 0.1265 µM): 0.439; relative viability ([17]; first compound 0.4 µM): 0.32; relative viability ([17]; first compound 1.265 µM): 0.348; relative viability ([17]; first compound 4 µM): 0.34; relative viability ([18]; first compound 0.04 µM): 0.578; relative viability ([18]; first compound 0.1265 µM): 0.541; relative viability ([18]; first compound 0.4 µM): 0.582; relative viability ([18]; first compound 1.265 µM): 0.569; relative viability ([18]; first compound 4 µM): 0.586; relative viability ([19]; first compound 0.04 µM): 0.356; relative viability ([19]; first compound 0.1265 µM): 0.344; relative viability ([19]; first compound 0.4 µM): 0.434; relative viability ([19]; first compound 1.265 µM): 0.282; relative viability ([19]; first compound 4 µM): 0.287; relative viability ([20]; first compound 0.04 µM): 0.805; relative viability ([20]; first compound 0.1265 µM): 0.714; relative viability ([20]; first compound 0.4 µM): 0.883; relative viability ([20]; first compound 1.265 µM): 0.791; relative viability ([20]; first compound 4 µM): 0.758; relative viability ([21]; first compound 0.04 µM): 0.784; relative viability ([21]; first compound 0.1265 µM): 0.642; relative viability ([21]; first compound 0.4 µM): 0.638; relative viability ([21]; first compound 1.265 µM): 0.662; relative viability ([21]; first compound 4 µM): 0.732; relative viability ([22]; first compound 0.04 µM): 0.322; relative viability ([22]; first compound 0.1265 µM): 0.219; relative viability ([22]; first compound 0.4 µM): 0.244; relative viability ([22]; first compound 1.265 µM): 0.27; relative viability ([22]; first compound 4 µM): 0.294; relative viability ([23]; first compound 0.04 µM): 0.651; relative viability ([23]; first compound 0.1265 µM): 0.5; relative viability ([23]; first compound 0.4 µM): 0.585; relative viability ([23]; first compound 1.265 µM): 0.397; relative viability ([23]; first compound 4 µM): 0.4; relative viability ([24]; first compound 0.04 µM): 0.227; relative viability ([24]; first compound 0.1265 µM): 0.228; relative viability ([24]; first compound 0.4 µM): 0.254; relative viability ([24]; first compound 1.265 µM): 0.23; relative viability ([24]; first compound 4 µM): 0.228
